In patent US9724340B2, “Antitussive compositions and methods” (Attenua, Inc., priority 2015, dated 2017):

Tested on: conscious guinea pigs
Test: Citric acid inhalation cough model in conscious guinea pigs
Type: in vivo, guinea pig
Details: 30 min before citric acid aerosols 0.01M-0.3M
Experimental: Cough suppression was evaluated in conscious guinea pigs using a citric acid inhalation model (Smith et al., 2012). Guinea pigs were pretreated intraperitoneally with drug vehicle (saline), α7 PHA543613 (10 mg/kg) (FIG. 3), or (2S,3R)—N-(2-(3-pyridinyl)methyl)-1-azabicyclo[2.2.2]oct-3-yl)benzofuran-2-carboxamide (30 mg/kg) (FIG. 4). Respiration and cough reflexes were measured using a Buxco inhalation chamber connected to a Biopac data acquisition system. Thirty minutes after vehicle or drug administration, animals were challenged in sequence with ascending aerosol concentrations of citric acid (0.01M-0.3M), with each aerosol delivered for 5 minutes and with 5 minutes interval in between challenges. The cumulative coughs evoked were quantified and results are presented as a mean±standard error of the mean (SEM) of n experiments, where n refers to a single animal). Studies were performed using a nonpaired parallel group design. Differences amongst group means were evaluated by t-test or ANOVA, with a p<0.05 considered statistically significant which is represented by an asterisk (*) in FIG. 3 and FIG. 4.

SMILES	cumulative citric acid evoked coughs (in words) (30 mg/kg intraperitoneally, FIG. 4)	cumulative citric acid evoked coughs (in words) (10 mg/kg intraperitoneally, FIG. 3)
O=C(N[C@@H]1C2CCN(CC2)[C@H]1Cc1cccnc1)c1cc2ccccc2o1 [(2S,3R)—N-(2-((3-pyridinyl)methyl)-1-azabicyclo[2.2.2]oct-3-yl)benzofuran-2-carboxamide]	markedly inhibited citric acid evoked coughs	–
O=C(N[C@H]1CN2CCC1CC2)c1cc2ccoc2cn1 [PHA543613]	–	markedly inhibited citric acid evoked coughs
